Molecules are shown by their SMILES.

Here are results for 2 compounds from US6982276B2, “Polymorphs of an epothilone analog” (Bristol-Myers Squibb Company, priority 2000, dated 2006).

The data set is described as follows: Solution calorimetry (Thermometrics Microcalorimeter) in ethanol at 25° C. Format: physicochemical. To be noted: for Heat of Solution: in ethanol at 25° C. On the procedure:
Solution calorimetry was determined using a Thermometrics Microcalorimeter in ethanol at 25° C. The solubilities were likewise determined at 25° C.

Regarding `C/C(=C\c1csc(C)n1)[C@@H]1CC2O[C@]2(C)CCC[C@H](C)[C@H](O)[C@@H](C)C(=O)C(C)(C)[C@@H](O)CC(=O)N1` (single isomer, unassigned) [Form A, [1S-[1R*,3R*(E),7R*,10S*,11R*,12R*,16S*]]-7,11-Dihydroxy-8,8,10,12,16-pentamethyl-3-[1-methyl-2-(2-methyl-4-thiazolyl)ethenyl]-4-aza-17-oxabicyclo[14.1.0]heptadecane-5,9-dione, Form A], the “Heat of Solution” value was 4.92 kcal/mol. Besides, the “Relative stability of the polymorph forms” value (concluded from the data, particularly the heat of solution) is given as “more stable”.

On to `C/C(=C\c1csc(C)n1)[C@@H]1CC2O[C@]2(C)CCC[C@H](C)[C@H](O)[C@@H](C)C(=O)C(C)(C)[C@@H](O)CC(=O)N1` (single isomer, unassigned) [Form B, [1S-[1R*,3R*(E),7R*,10S*,11R*,12R*,16S*]]-7,11-Dihydroxy-8,8,10,12,16-pentamethyl-3-[1-methyl-2-(2-methyl-4-thiazolyl)ethenyl]-4-aza-17-oxabicyclo[14.1.0]heptadecane-5,9-dione, Form B], for which the “Heat of Solution” value was found to be 2.36 kcal/mol.
